In patent US8492310B2, “Herbicidal compositions containing benzoylpyrazole compounds” (priority 2008, dated 2013):
Like-named read-outs stand apart in the source and are kept apart here.

Tests used:
Assay type in all cases: in vivo
[1] = test system: crabgrass (Digitaria sanguinalis L.); experiment: Foliar treatment pot test, visual growth inhibition rate, crabgrass (DS)
Text: (§1) When the herbicidal activity in a case where two active ingredients are combined, is larger than the simple sum of the respective herbicidal activities of the two active ingredients (the expected activity), it is called a synergistic effect. The activity expected by the combination of two active ingredients can be calculated as follows (Colby S. R., “Weed”, vol. 15, p. 20-22, 1967). E=α+β−(α×β÷100) where
(§2) Upland field soil was put into a 1/1,000,000 hectare pot, and seeds of various plants (barnyardgrass (Echinochloa crus-qalli L.), crabgrass (Digitaria sanguinalis L.), giant foxtail (Setaria faberi Herrm.), velvetleaf (Abutilon theophrasti MEDIC.) and prickly sida (Sida spinosa L.)) were sown. When the respective plants reached predetermined leaf stage, herbicidal compositions in predetermined amounts were diluted with water in an amount corresponding to 300 L/ha and applied for foliar treatment by a small sprayer.
(§3) Further, in accordance with the above Colby's formula, the growth inhibition rate (calculated value) was calculated. In Tables, with respect to the compound Q, Compound Nos. in Table 1 are described, and with respect to other herbicidal compounds, common names are described. Further, in Tables, barnyardgrass is represented by “EC”, crabgrass by “DS”, giant foxtail by “SF”, velvetleaf by “AT”, and prickly sida by “SS”.

[2] = test system: prickly sida (Sida spinosa L.); experiment: Foliar treatment pot test, visual growth inhibition rate, prickly sida (SS); settings: for inhibition at 15 g/ha: 1.5-2.4 leaf stage
Text: as §1, §2, §3

[3] = test system: velvetleaf (Abutilon theophrasti MEDIC.); experiment: Foliar treatment pot test, visual growth inhibition rate, velvetleaf (AT)
Text: as §1, §2, §3

[4] = test system: barnyardgrass (Echinochloa crus-qalli L.); experiment: Foliar treatment pot test, visual growth inhibition rate, barnyardgrass (EC); settings: 4.0-5.0 leaf stage, read-out: Growth inhibition rate (%) of EC Measured value
Text: as §1, §2, §3

[5] = Digitaria sanguinalis, foliar, 552 h, 4.5-5.3 leaf stage, 23 DAT, read-out: Growth inhibition rate (%) of DS Measured value
[6] = Abutilon theophrasti, foliar, 552 h, 3.0-4.2 leaf stage, 23 DAT, read-out: Growth inhibition rate (%) of AT Measured value
[7] = Digitaria sanguinalis, foliar, 480 h, 4.5-5.2 leaf stage, 20 DAT, read-out: Growth inhibition rate (%) of DS Measured value
[8] = Abutilon theophrasti, foliar, 480 h, 4.2-4.3 leaf stage, 20 DAT, read-out: Growth inhibition rate (%) of AT Measured value
[9] = Digitaria sanguinalis, foliar, 480 h, 3.7-4.0 leaf stage, 20 DAT, read-out: Growth inhibition rate (%) of DS Measured value
[10] = Abutilon theophrasti, foliar, 480 h, 4.0-4.2 leaf stage, 20 DAT, read-out: Growth inhibition rate (%) of AT Measured value
[11] = Abutilon theophrasti, foliar, 528 h, 3.3-3.8 leaf stage, 22 DAT, read-out: Growth inhibition rate (%) of AT Measured value

CCCCCCCC(=O)Oc1c(Br)cc(C#N)cc1Br [Bromoxynil-octanoate, bromoxynil-octanoate]
inhibition at 63 g/ha ([1]; Digitaria sanguinalis, foliar, 336 h, 4.0-5.0 leaf stage, 14 DAT, read-out: Growth inhibition rate (%) of DS Measured value): 0%
inhibition at 63 g/ha ([1]; Digitaria sanguinalis, foliar, 504 h, 4.0-5.1 leaf stage, 21 DAT, read-out: Growth inhibition rate (%) of DS Measured value): 0%
inhibition at 77 g/ha ([1]; Digitaria sanguinalis, foliar, 528 h, 3.1-4.0 leaf stage, 22 DAT, 77 g/ha, read-out: Growth inhibition rate (%) of DS Measured value): 0%
inhibition at 30 g/ha ([1]; Digitaria sanguinalis, foliar, 552 h, 4.5-5.3 leaf stage, 23 DAT, 30 g/ha, read-out: Growth inhibition rate (%) of DS Measured value): 25%
inhibition at 60 g/ha [1, 5]: 10%
inhibition at 120 g/ha [1, 5]: 45%
inhibition at 25 g/ha ([2]; Sida spinosa, foliar, 528 h, 3.0-3.3 leaf stage, 22 DAT, 25 g/ha, read-out: Growth inhibition rate (%) of SS Measured value): 40%
inhibition at 50 g/ha ([2]; Sida spinosa, foliar, 528 h, 3.0-3.3 leaf stage, 22 DAT, read-out: Growth inhibition rate (%) of SS Measured value): 50%
inhibition at 100 g/ha ([2]; Sida spinosa, foliar, 528 h, 3.0-3.3 leaf stage, 22 DAT, 100 g/ha, read-out: Growth inhibition rate (%) of SS Measured value): 50%
inhibition at 63 g/ha ([3]; Abutilon theophrasti, foliar, 504 h, 3.0-3.5 leaf stage, 21 DAT, 63 g/ha, read-out: Growth inhibition rate (%) of AT Measured value): 10%
inhibition at 100 g/ha ([3]; Abutilon theophrasti, foliar, 528 h, 4.0-4.3 leaf stage, 22 DAT, read-out: Growth inhibition rate (%) of AT Measured value): 25%
inhibition at 30 g/ha [3, 6]: 0%
inhibition at 60 g/ha [3, 6]: 0%
inhibition at 120 g/ha [3, 6]: 0%
inhibition at 200 g/ha ([3]; Abutilon theophrasti, foliar, 576 h, 3.2-4.1 leaf stage, 24 DAT, 200 g/ha, read-out: Growth inhibition rate (%) of AT Measured value): 100%

COc1c(Cl)ccc(Cl)c1C(=O)O [Dicamba, dicamba]
inhibition at 100 g/ha ([1]; Digitaria sanguinalis, foliar, 312 h, 4.4-5.0 leaf stage, 13 DAT, read-out: Growth inhibition rate (%) of DS Measured value): 0%
inhibition at 25 g/ha [1, 7]: 0%
inhibition at 50 g/ha [1, 7]: 0%
inhibition at 100 g/ha [1, 7]: 0%
inhibition at 200 g/ha ([1]; Digitaria sanguinalis, foliar, 504 h, 5.0-5.5 leaf stage, 21 DAT, 200 g/ha, read-out: Growth inhibition rate (%) of DS Measured value): 0%
inhibition at 60 g/ha [1, 5]: 55%
inhibition at 120 g/ha [1, 5]: 75%
inhibition at 100 g/ha ([3]; Abutilon theophrasti, foliar, 312 h, 3.3-4.2 leaf stage, 13 DAT, read-out: Growth inhibition rate (%) of AT Measured value): 35%
inhibition at 25 g/ha [3, 8]: 25%
inhibition at 50 g/ha [3, 8]: 35%
inhibition at 100 g/ha [3, 8]: 43%
inhibition at 100 g/ha ([3]; Abutilon theophrasti, foliar, 504 h, 3.5-4.3 leaf stage, 21 DAT, read-out: Growth inhibition rate (%) of AT Measured value): 55%
inhibition at 60 g/ha [3, 6]: 0%
inhibition at 120 g/ha [3, 6]: 0%
inhibition at 200 g/ha ([4]; 336 h, 14 DAT, 200 g/ha): 0%

CS(=O)(=O)c1ccc(C(=O)C2C(=O)CCCC2=O)c([N+](=O)[O-])c1 [Mesotrione]
inhibition at 25 g/ha [1, 9]: 55%
inhibition at 50 g/ha [1, 9]: 83%
inhibition at 12.5 g/ha ([1]; Digitaria sanguinalis, foliar, 480 h, 5.1-5.2 leaf stage, 20 DAT, 12.5 g/ha, read-out: Growth inhibition rate (%) of DS Measured value): 80%
inhibition at 25 g/ha [3, 10]: 23%
inhibition at 50 g/ha [3, 10]: 35%
inhibition at 12.5 g/ha ([3]; Abutilon theophrasti, foliar, 480 h, 4.1-4.2 leaf stage, 20 DAT, 12.5 g/ha, read-out: Growth inhibition rate (%) of AT Measured value): 75%
inhibition at 25 g/ha ([3]; Abutilon theophrasti, foliar, 480 h, 4.1-4.2 leaf stage, 20 DAT, read-out: Growth inhibition rate (%) of AT Measured value): 94%
inhibition at 15 g/ha ([3]; Abutilon theophrasti, foliar, 576 h, 3.2-4.1 leaf stage, 24 DAT, read-out: Growth inhibition rate (%) of AT Measured value): 88%
inhibition at 15 g/ha ([4]; 504 h, 21 DAT, 15 g/ha): 5%

COc1cc(OC)nc(NC(=O)NS(=O)(=O)c2ncccc2C(=O)N(C)C)n1 [Nicosulfuron, nicosulfuron]
inhibition at 5 g/ha ([1]; Digitaria sanguinalis, foliar, 336 h, 3.5-4.3 leaf stage, 14 DAT, 5 g/ha, read-out: Growth inhibition rate (%) of DS Measured value): 15%
inhibition at 10 g/ha ([1]; Digitaria sanguinalis, foliar, 504 h, 3.5 to 4.3 leaf stage, 21 DAT, 10 g/ha, read-out: Growth inhibition rate (%) of DS Measured value): 30%
inhibition at 20 g/ha ([1]; Digitaria sanguinalis, foliar, 504 h, 4.5-5.1 leaf stage, 21 DAT, 20 g/ha, read-out: Growth inhibition rate (%) of DS Measured value): 50%
inhibition at 80 g/ha ([1]; Digitaria sanguinalis, foliar, 504 h, 4.5-5.1 leaf stage, 21 DAT, 80 g/ha, read-out: Growth inhibition rate (%) of DS Measured value): 94%
inhibition at 15 g/ha ([2]; Sida spinosa, foliar, 480 h, 20 DAT, read-out: Growth inhibition rate (%) of SS Measured value): 45%
inhibition at 15 g/ha ([2]; Sida spinosa, foliar, 504 h, 21 DAT, read-out: Growth inhibition rate (%) of SS Measured value): 45%
inhibition at […] ([2]; Sida spinosa, foliar, 504 h, 2.1 to 3.1 leaf stage, 21 DAT, 2.5 g/ha, read-out: Growth inhibition rate (%) of SS Measured value): 0%
inhibition at 5 g/ha ([2]; Sida spinosa, foliar, 504 h, 2.1 to 3.1 leaf stage, 21 DAT, 5 g/ha, read-out: Growth inhibition rate (%) of SS Measured value): 0%
inhibition at 10 g/ha ([2]; Sida spinosa, foliar, 504 h, 2.1 to 3.1 leaf stage, 21 DAT, 10 g/ha, read-out: Growth inhibition rate (%) of SS Measured value): 10%
inhibition at 20 g/ha ([2]; Sida spinosa, foliar, 504 h, 2.1 to 3.1 leaf stage, 21 DAT, 20 g/ha, read-out: Growth inhibition rate (%) of SS Measured value): 40%
inhibition at 30 g/ha ([2]; Sida spinosa, foliar, 504 h, 2.1 to 3.1 leaf stage, 21 DAT, 30 g/ha, read-out: Growth inhibition rate (%) of SS Measured value): 50%
inhibition at 50 g/ha ([2]; Sida spinosa, foliar, 504 h, 2.1 to 3.1 leaf stage, 21 DAT, read-out: Growth inhibition rate (%) of SS Measured value): 70%
inhibition at 5 g/ha ([3]; Abutilon theophrasti, foliar, 480 h, 3.1-3.4 leaf stage, 20 DAT, 5 g/ha, read-out: Growth inhibition rate (%) of AT Measured value): 10%
inhibition at 7 g/ha ([3]; Abutilon theophrasti, foliar, 504 h, 3.8-4.4 leaf stage, 21 DAT, read-out: Growth inhibition rate (%) of AT Measured value): 30%
inhibition at 40 g/ha ([3]; Abutilon theophrasti, foliar, 504 h, 4.0-4.5 leaf stage, 21 DAT, 40 g/ha, read-out: Growth inhibition rate (%) of AT Measured value): 65%
inhibition at 60 g/ha ([3]; Abutilon theophrasti, foliar, 504 h, 4.0-4.5 leaf stage, 21 DAT, read-out: Growth inhibition rate (%) of AT Measured value): 70%
inhibition at 80 g/ha ([3]; Abutilon theophrasti, foliar, 504 h, 4.0-4.5 leaf stage, 21 DAT, 80 g/ha, read-out: Growth inhibition rate (%) of AT Measured value): 83%
inhibition at 7 g/ha [3, 11]: 45%
inhibition at 15 g/ha [3, 11]: 60%
inhibition at 30 g/ha [3, 11]: 70%
inhibition at 10 g/ha ([3]; Abutilon theophrasti, foliar, 528 h, 4.0-4.4 leaf stage, 22 DAT, 10 g/ha, read-out: Growth inhibition rate (%) of AT Measured value): 40%

CCc1cccc(C)c1N(C(=O)CCl)[C@@H](C)COC [S-Metolachlor, S-metolachlor]
Growth inhibition rate (%) of DS Measured value ([1]; 3.5-4.3 leaf stage, 21 DAT, 400 g/ha): 0%
Growth inhibition rate (%) of DS Measured value ([1]; 4.0-5.0 leaf stage, 14 DAT, 150 g/ha): 0%
Growth inhibition rate (%) of DS Measured value ([1]; 4.0-5.1 leaf stage, 21 DAT, 300 g/ha): 0%
Growth inhibition rate (%) of DS Measured value ([1]; 5.0-6.0 leaf stage, 14 DAT, 800 g/ha): 0%
Growth inhibition rate (%) of SS Measured value ([2]; 3.0-3.3 leaf stage, 21 DAT, 800 g/ha): 20%
Growth inhibition rate (%) of AT Measured value ([3]; 3.0-3.5 leaf stage, 21 DAT, 300 g/ha): 0%
Growth inhibition rate (%) of AT Measured value ([3]; 3.0-3.8 leaf stage, 21 DAT, 400 g/ha): 0%
Growth inhibition rate (%) of AT Measured value ([3]; 3.0-4.0 leaf stage, 14 DAT, 150 g/ha): 0%
Growth inhibition rate (%) of AT Measured value ([3]; 4.6-5.3 leaf stage, 14 DAT, 1200 g/ha): 0%
